The record followed here is patent US6610883B1, “Compounds having selective activity for retinoid X receptors, and means for modulation of processes mediated by retinoid X receptors” (Ligand Pharmaceuticals, Inc., priority 1992, dated 2003).

Assay type in all cases: cell-based
Assay [1] has as its target T1, RARβ (Homo sapiens, UniProt P10826).
T1 sequence (P10826 1-455): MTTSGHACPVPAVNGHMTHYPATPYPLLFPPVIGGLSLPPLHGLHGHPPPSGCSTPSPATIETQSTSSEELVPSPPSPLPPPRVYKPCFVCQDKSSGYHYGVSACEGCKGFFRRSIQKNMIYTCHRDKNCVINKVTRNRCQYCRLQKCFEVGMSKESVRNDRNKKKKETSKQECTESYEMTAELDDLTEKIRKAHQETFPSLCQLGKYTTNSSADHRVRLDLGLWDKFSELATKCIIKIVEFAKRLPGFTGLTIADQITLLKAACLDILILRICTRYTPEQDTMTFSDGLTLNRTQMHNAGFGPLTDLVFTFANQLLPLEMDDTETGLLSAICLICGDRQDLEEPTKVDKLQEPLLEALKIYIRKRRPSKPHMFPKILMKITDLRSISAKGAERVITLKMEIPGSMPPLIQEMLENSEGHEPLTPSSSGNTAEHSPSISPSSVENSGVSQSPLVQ
The assay is described as follows: Co-transfection (cis-trans) assay in CV-1 cells, RARβ. More on the design: expressed in transfected cells; host or cells: CV-1 (monkey kidney). To be noted: for Emax at 10 µM: CV-1, maximal response relative to all-trans-retinoic acid at 10^−5 M, read-out: Efficacy; for EC50: CV-1 cells, luciferase reporter, 36 h, read-out: Potency. The source says:
(§1) The co-transfection assay provides a mechanism to evaluate the ability of a compound to modulate the transcription response initiated by an intracellular receptor. […] Berger, et al., J. Steroid Biochem Molec.
(§2) Briefly, the co-transfection assay involves the introduction of two plasmids by transient transfection into a retinoid receptor-negative mammalian cell background. The first plasmid contains a retinoid receptor cDNA and directs constitutive expression of the encoded receptor. The second plasmid contains a cDNA that encodes for a readily quantifiable protein, e.g., firefly luciferase or chloramphenicol acetyl transferase (CAT), under control of a promoter containing a retinoid acid response element, which confers retinoid dependence on the transcription of the reporter. In this co-transfection assay, all retinoid receptors respond to all-trans-retinoic acid in a similar fashion. This assay can be used to accurately measure efficacy and potency of retinoic acid and synthetic retinoids as ligands that interact with the individual retinoid receptor subtypes.
(§3) Accordingly, synthetic retinoid compounds of the current invention were evaluated for their interaction with retinoid receptor subtypes using the co-transfection assay in which CV-1 cells were co-transfected with one of the retinoid receptor subtypes, a reporter construct, and an internal control to allow normalization of the response for transfection efficiency. The following example is illustrative.
(§4) Retinoids: All-tans-retinoic acid (RA) and 13-cis-retinoic acid (13-cis-RA) were obtained from Sigma. […] Retinoids were dissolved in dimethylsulfoxide for use in the transcriptional activation assays.
(§5) Co-transfection Assay In CV-1 Cells: A monkey kidney cell line, CV-1, was used in the cis-trans assay. Cells were transfected with two plasmids. […] The cis-vector contains an easily assayable gene product, in this case the firefly luciferase, coupled to a retinoid-responsive promoter, i.e., an RARE or RXRE. Addition of retinoic acid or an appropriate synthetic retinoid results in the formation of a retinoid-RAR or -RXR complex that activates the expression of luciferase gene, causing light to be emitted from cell extracts. The level of luciferase activity is directly proportional to the effectiveness of the retinoid-receptor complex in activating gene expression. This sensitive and reproducible co-transfection approach permits the identification of retinoids that interact with the different receptor isoforms.
(§6) Cells were cultured in DMEM supplemented with 10% charcoal resin-stripped fetal bovine serum, and experiments were conducted in 96-well plates. […] Cells were transfected for 6 h and then washed to remove the precipitate. The cells were then incubated for 36 h with or without retinoid. After the transfection, all subsequent steps were performed on a Beckman Biomek Automated Workstation. […] All determinations were performed in triplicate in two independent experiments and were normalized for transfection efficiency by using β-galactosidase as the internal control. […] Efficacy values less than 5% are not statistically different than the 0% background.
In general terms: A reporter such as luciferase makes a cellular process visible.

Assay [2] addresses T2, RXRγ (Mus musculus, UniProt P28705).
T2 construct: expressed in transfected cells; host or cells: CV-1 (monkey kidney)
T2 sequence (P28705 1-463): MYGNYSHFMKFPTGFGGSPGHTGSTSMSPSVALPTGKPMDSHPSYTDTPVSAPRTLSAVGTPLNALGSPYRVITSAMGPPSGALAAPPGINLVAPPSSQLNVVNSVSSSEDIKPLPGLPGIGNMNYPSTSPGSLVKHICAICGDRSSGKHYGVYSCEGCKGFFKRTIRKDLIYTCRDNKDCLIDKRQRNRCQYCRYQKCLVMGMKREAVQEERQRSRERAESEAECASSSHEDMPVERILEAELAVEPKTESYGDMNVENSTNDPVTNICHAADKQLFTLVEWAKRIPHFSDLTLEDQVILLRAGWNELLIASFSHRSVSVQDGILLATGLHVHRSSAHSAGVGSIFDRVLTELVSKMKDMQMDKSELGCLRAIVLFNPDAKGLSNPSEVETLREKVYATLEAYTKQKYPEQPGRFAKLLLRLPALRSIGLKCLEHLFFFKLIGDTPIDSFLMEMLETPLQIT
The assay is described as follows: Co-transfection (cis-trans) assay in CV-1 cells, RXRγ. To be noted: for Emax at 10 µM: CV-1, maximal response relative to all-trans-retinoic acid at 10^−5 M, read-out: Efficacy.
Source text: as §1, §2, §3, §4, §5, §6

Assay [3] deals with T3, RXRα (Homo sapiens, UniProt P19793).
T3 construct: The first plasmid contains a retinoid receptor cDNA and directs constitutive expression of the encoded receptor; expressed in transfected cells; host or cells: CV-1 (monkey kidney)
T3 sequence (P19793 1-462): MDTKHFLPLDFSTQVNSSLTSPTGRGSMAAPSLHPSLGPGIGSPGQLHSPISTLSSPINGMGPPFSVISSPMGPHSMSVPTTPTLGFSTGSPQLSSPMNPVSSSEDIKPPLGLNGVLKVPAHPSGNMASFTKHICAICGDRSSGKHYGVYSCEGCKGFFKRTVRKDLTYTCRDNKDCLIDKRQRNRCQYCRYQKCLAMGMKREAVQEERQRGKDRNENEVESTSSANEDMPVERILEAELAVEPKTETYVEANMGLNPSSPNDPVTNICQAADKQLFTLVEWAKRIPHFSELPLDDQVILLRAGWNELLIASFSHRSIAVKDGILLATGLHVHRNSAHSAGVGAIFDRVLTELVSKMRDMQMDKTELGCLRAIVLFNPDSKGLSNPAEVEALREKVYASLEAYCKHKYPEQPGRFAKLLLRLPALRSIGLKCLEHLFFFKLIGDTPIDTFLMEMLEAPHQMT
Put plainly: Co-transfection (cis-trans) assay in CV-1 cells, RXRα. To be noted: for Emax at 10 µM: CV-1, maximal response relative to all-trans-retinoic acid at 10^−5 M, read-out: Efficacy. More on the design: Emax: dose or concentration left out as unconfirmed.
Source text: as §1, §2, §3, §4, §5, §6

[4] abbreviates: RXRγ, CV-1 cells, luciferase reporter, 36 h, read-out: Potency.
Where [5] appears, read: RXRα, CV-1 cells, luciferase reporter, 36 h, read-out: Potency.

Read-outs that look alike come from different tables or passages of the source.

In the case of `C=C(c1ccc(C(=O)O)cc1)c1cc2c(cc1Br)C(C)(C)CCC2(C)C` [3-Bromo-TTNEB, 4-[1-(3-bromo-5,5,8,8-tetramethyl-5,6,7,8-tetrahydro-2-naphthyl)ethenyl]benzoic acid], the Emax at 10 µM in assay [1] was found to be 18%. Moreover, the values for the EC50 in assay [2] and in assay [3] were 0.052 µM and 0.064 µM, respectively. Besides, the Emax in assay [3] (CV-1, read-out: Efficacy) stood at 88%.

For the compound `Cc1cc2c(cc1C(=O)c1ccc(C(=O)Nc3ccc(O)cc3)cc1)C(C)(C)CCC2(C)C` [3-Methyl-TTNCHBP, 4-[(3,5,5,8,8-pentamethyl-5,6,7,8-tetrahydro-2-naphthyl)carbonyl]-N-(4-hydroxyphenyl)benzamide], the Emax at 10 µM turned out to be 7% in assay [1], 128% in assay [2] (RXRγ) and 113% in assay [3] (RXRα). The EC50 in assay [1] was > 10 µM; in assay [2] (setting [4]), 0.3 µM; in assay [3] (setting [5]) it was 1.1 µM.

With `C=C(c1ccc(C(=O)Nc2ccc(O)cc2)cc1)c1cc2c(cc1C)C(C)(C)CCC2(C)C` [3-Methyl-TTNEHBP (63), 4-[1-(3,5,5,8,8-pentamethyl-5,6,7,8-tetrahydro-2-naphthyl)ethenyl]-N-(4-hydroxyphenyl)benzamide], the figures for the Emax at 10 µM in assay [1], in assay [2] (RXRγ) and in assay [3] (RXRα) were 25%, 163% and 125%, respectively. Moreover, the EC50 is 1.9 µM in assay [1], 0.048 µM in assay [2] (setting [4]) and 0.14 µM in assay [3] (setting [5]).

As to `CCCC(=C/C=C/C(C)=C/C(=O)O)/C=C/C1=C(C)CCCC1(C)C` [Compound 74, 3-methyl-7-propyl-9-(2,6,6-trimethyl-1-cyclohexen-1-yl)-2E,4E,6Z,8E-nonatetranoic acid], the Emax at 10 µM in assay [1] came to 50%; in assay [2] (RXRγ), 85%; in assay [3] (RXRα), 78%. Also, the EC50 came to 0.038 µM in assay [1], 0.012 µM in assay [2] (setting [4]) and 0.011 µM in assay [3] (setting [5]).

On to `CC1=C(/C=C/C(=C\C=C\C(C)=C\C(=O)O)C(C)C)C(C)(C)CCC1` [Compound 75, 3-methyl-7-isopropyl-9-(2,6,6-trimethyl-1-cyclohexen-1-yl)-2E,4E,6Z,8E-nonatetranoic acid], for which the Emax at 10 µM in assay [1] came to 58%; in assay [2] (RXRγ), 106%; in assay [3] (RXRα), 100%. In addition, the EC50 in assay [1] amounted to 0.18 µM; in assay [2] (setting [4]), 0.011 µM; in assay [3] (setting [5]) it was 0.021 µM.

Regarding `CC1=C(/C=C/C(=C\C=C\C(C)=C\C(=O)O)C(C)(C)C)C(C)(C)CCC1` [Compound 77, 3-methyl-7-t-butyl-9-(2,6,6-trimethyl-1-cyclohexen-1-yl)-2E,4E,6Z,8E-nonatetranoic acid], the Emax at 10 µM in assay [1] turned out to be 63%; in assay [2] (RXRγ), 71%; in assay [3] (RXRα), 75%. The EC50 in assay [1] was found to be 0.14 µM; in assay [2] (setting [4]) it was 0.009 µM; in assay [3] (setting [5]) it was 0.016 µM.

Regarding `CC1=C(C=CC2CCCCC2/C=C/C(C)=C/C(=O)O)C(C)(C)CCC1` (stereo not shown) [Compound 100, 3-methyl-5-(2-[2-(2,6,6-trimethylcyclohexen-1-yl)ethenyl]cyclohexyl)-2E,4E-pentadienoic acid], the Emax at 10 µM in assay [1] amounted to 5%; in assay [2] (RXRγ), 72%; in assay [3] (RXRα) it was 63%. The figures for the EC50 in assay [1], in assay [2] (setting [4]) and in assay [3] (setting [5]) were > 10 µM, 0.106 µM and 0.123 µM, respectively.

Consider `CC(/C=C/C1(c2cc3c(cc2C)C(C)(C)CCC3(C)C)CC1)=C\C(=O)O` [Compound 104, (2E,4E)-3-methyl-5-[1-(3,5,5,8,8-pentamethyl-5,6,7,8-tetrahydro-2-naphthyl)cyclopropyl]penta-2,4-dienoic acid], for which the Emax at 10 µM in assay [1] is 5%; in assay [2] (RXRγ), 85%; in assay [3] (RXRα), 75%. Moreover, the values for the EC50 in assay [1], in assay [2] (setting [4]) and in assay [3] (setting [5]) were > 10 µM, 0.007 µM and 0.005 µM, respectively.

As to `CC1=C(/C=C/C2(C/C=C/C(C)=C/C(=O)O)CC2)C(C)(C)CCC1` [Compound 110], the Emax at 10 µM worked out at 29% in assay [1], 87% in assay [2] (RXRγ) and 79% in assay [3] (RXRα). Moreover, the EC50 in assay [1] came to 0.446 µM; in assay [2] (setting [4]) it was 0.198 µM; in assay [3] (setting [5]), 0.085 µM.

As for `CC(/C=C/C=C(\c1ccc2c(c1)C(C)(C)CCC2(C)C)C(C)C)=C\C(=O)O` [Compound 123, (2E,4E,6Z)-7-(5,5,8,8-tetramethyl-5,6,7,8-tetrahydro-2-naphthyl)-3,8-dimethyl-nona-2,4,6-trienoic acid], the Emax at 10 µM in assay [1] is 55%; in assay [2] (RXRγ), 97%; in assay [3] (RXRα), 90%. The EC50 came out at 0.075 µM in assay [1], 0.024 µM in assay [2] (setting [4]) and 0.024 µM in assay [3] (setting [5]).

Turning to `C/C(=C/C=C/C(C)=C/C(=O)O)c1cc2c(cc1C)C(C)(C)CCC2(C)C` [Compound 128, (2E,4E,6Z)-7-(3,5,5,8,8-pentamethyl-5,6,7,8-tetrahydro-2-naphthyl)-3-methyl-octa-2,4,6-trienoic acid], the Emax at 10 µM in assay [1] was 40%; in assay [2] (RXRγ), 115%; in assay [3] (RXRα) it was 108%. Also, the EC50 amounted to 0.18 µM in assay [1], 0.01 µM in assay [2] (setting [4]) and 0.011 µM in assay [3] (setting [5]).
